{
  "source": "patent EP1078002B1",
  "about": "“PEPTIDE ANTIANGIOGENIC DRUGS” (ABBOTT LABORATORIES, priority 1998, dated 1999)",
  "key": {"[1]": {"test_system": "Rat Cornea Neovascularization", "assay": "Rat cornea neovascularization (bFGF/Hydron pellet implantation)", "assay_type": "in vivo, Sprague Dawley rats", "settings": "day seven post-implantation", "protocol": "[…] Louis, MO) were pipetted into the tip of a sterile Teflon rod. After drying for 1-2 hours, the pellets were stored at 4 °C.\nA small (about 2 mm) radial incision at 1 mm from the center of the cornea was performed in anesthetized Sprague Dawley rats. With a curved iris spatula, an intrastromal pocket was made to a distance of 1 mm from the limbus-the circular blood vessels that surround the cornea. A single pellet was implanted. Antibiotic ointment (neosporin) was applied post surgery to the operated eye to prevent infection and to decrease inflammation.\nAt day seven post-implantation, neovascularization was measured through a slitlamp biomicroscopy (Nikon NS-1), connected to an image analysis system (Leica Qwin). The response was calculated by colorimetrically detecting the area of new blood vessels, and calculating the new vessel surface area in µm^2."}, "[2]": {"test_system": "Human Microvascular Endothelial Cells", "assay": "Human microvascular endothelial cell (HMVEC) migration assay, modified Boyden chamber", "assay_type": "cell-based", "settings": "activators 15 ng/ml bFGF/VEGF, 4 hours at 37 °C", "protocol": "The human microvascular endothelial (HMVEC) migration assay was run according to the procedure of S. S. Tolsma, O. V. Volpert, D. J. Good, W. F. Frazier, P. J. Polverini and N. Bouck, J. Cell Biol. 122, 497-511 (1993).\nThe HMVEC migration assay was carried out using Human Microvascular Endothelial Cells-Dermal (single donor) and Human Microvascular Endothelial Cells, (neonatal). The BCE or HMVEC cells were starved overnight in DME containing 0.1 % bovine serum albumin (BSA). Cells were then harvested with trypsin and resuspended in DME with 0.1 % BSA at a concentration of 1.5 X 10^6 cells per ml. Cells were added to the bottom of a 48 well modified Boyden chamber (Nucleopore Corporation, Cabin John, MD). The chamber was assembled and inverted, and cells were allowed to attach for 2 hours at 37 °C to polycarbonate chemotaxis membranes (5 µm pore size) that had been soaked in 0.1% gelatin overnight and dried. The chamber was then reinverted, and test substances (total volume of 50 µl), including activators, 15 ng/ml bFGF/VEGF, were added to the wells of the upper chamber. The apparatus was incubated for 4 hours at 37 °C. Membranes were recovered, fixed and stained (Diff Quick, Fisher Scientific) and the number of cells that had migrated to the upper chamber per […] high power fields counted. Background migration to DME + 0.1 BSA was subtracted and the data reported as the number of cells migrated per 10 high power fields (400X) or, when results from multiple experiments were combined, as the percent inhibition of migration compared to a positive control."}},
  "note": "Peptide text beside a SMILES is read from it.",
  "data": [
    {"molecule": "CCC[C@H](NC(=O)[C@@H](NC(=O)[C@H](NC(=O)[C@@H](NC(=O)CNC(=O)CN(C)C(C)=O)C(C)C)[C@H](C)CC)[C@@H](C)O)C(=O)N[C@H](C(=O)N[C@@H](CCCNC(=N)N)C(=O)N1CCC[C@H]1C(=O)NCC)[C@@H](C)CC", "note": "[Example 1, N-Ac-Sar-Gly-Val-D-Ile-Thr-Nva-Ile-Arg-ProNHCH2CH3] (HELM PEPTIDE1{[ac].[Sar].G.V.[dI].T.[Nva].I.R.P.[CCN[*:1]]}$$$$V2.0)", "values": [
      {"measurement": "% Inhibition", "setting": "[1]; dose 5 µM in pellet with 100 ng bFGF, 5 corneas", "result": 74.8, "unit": "%"},
      {"measurement": "% Inhibition", "setting": "[1]; dose 6 µM in pellet with 100 ng bFGF, 4 corneas", "result": 71.5, "unit": "%"},
      {"measurement": "% Inhibition", "setting": "[1]; dose 10 µM in pellet with 100 ng bFGF, 6 corneas", "result": 92.6, "unit": "%"}
    ]},
    {"molecule": "CCC[C@H](NC(=O)[C@@H](NC(=O)[C@H](NC(=O)[C@@H](NC(=O)CNC(=O)CN(C)C(C)=O)C(C)C)[C@H](C)CC)[C@@H](C)O)C(=O)N[C@H](C(=O)N[C@@H](CCCNC(=N)N)C(=O)N1CCC[C@H]1C(=O)NC)[C@@H](C)CC", "note": "[Example 3, N-Ac-Sar-Gly-Val-D-Ile-Thr-Nva-Ile-Arg-ProNHCH3] (HELM PEPTIDE1{[ac].[Sar].G.V.[dI].T.[Nva].I.R.P.[CN[*:1]]}$$$$V2.0)", "values": [
      {"measurement": "% Inhib. @ 20 nM", "setting": "[2]", "result": 56.0, "unit": "%"}
    ]},
    {"molecule": "CCC[C@H](NC(=O)[C@@H](NC(=O)[C@H](NC(=O)[C@@H](NC(=O)CNC(=O)CN(C)C(C)=O)C(C)C)[C@H](C)CC)[C@@H](C)O)C(=O)N[C@H](C(=O)N[C@@H](CCCNC(=N)N)C(=O)N1CCC[C@H]1C(=O)NCCC1CCCCC1)[C@@H](C)CC", "note": "[Example 12, N-Ac-Sar-Gly-Val-D-Ile-Thr-Nva-Ile-Arg-ProNHCH2CH2-cyclohexyl] (HELM PEPTIDE1{[ac].[Sar].G.V.[dI].T.[Nva].I.R.P.[C1CCC(CCN[*:1])CC1]}$$$$V2.0)", "values": [
      {"measurement": "% Inhib. @ 20 nM", "setting": "[2]", "result": 55.8, "unit": "%"}
    ]},
    {"molecule": "CCCCCCCC[C@H](NC(=O)[C@@H](NC(=O)[C@H](NC(=O)[C@@H](NC(=O)CNC(=O)CN(C)C(C)=O)C(C)C)[C@H](C)CC)[C@@H](C)O)C(=O)N[C@H](C(=O)N[C@@H](CCCNC(=N)N)C(=O)N1CCC[C@H]1C(=O)NCC)[C@@H](C)CC", "note": "[Example 50, N-Ac-Sar-Gly-Val-D-Ile-Thr-Octylgly-Ile-Arg-ProNHCH2CH3] (HELM PEPTIDE1{[ac].[Sar].G.V.[dI].T.[CCCCCCCC[C@H](N[*:1])C(=O)[*:2]].I.R.P.[CCN[*:1]]}$$$$V2.0)", "values": [
      {"measurement": "% Inhib. @ 20 nM", "setting": "[2]", "result": 71.6, "unit": "%"}
    ]},
    {"molecule": "CCC[C@H](NC(=O)[C@@H](NC(=O)[C@H](NC(=O)[C@@H](NC(=O)CNC(=O)CN(C)C(=O)CCCCCNC(C)=O)C(C)C)[C@H](C)CC)[C@@H](C)O)C(=O)N[C@H](C(=O)N[C@@H](CCCNC(=N)N)C(=O)N1CCC[C@H]1C(=O)NCC)[C@@H](C)CC", "note": "[Example 63, N-[6-N'-Acetyl-(CH2)5C(O)]-Sar-Gly-Val-D-Ile-Thr-Nva-Ile-Arg-ProNHCH2CH3] (HELM PEPTIDE1{[ac].[O=C(CCCCCN[*:1])[*:2]].[Sar].G.V.[dI].T.[Nva].I.R.P.[CCN[*:1]]}$$$$V2.0)", "values": [
      {"measurement": "% Inhib. @ 10 nM", "setting": "[2]", "result": 82.4, "unit": "%"}
    ]},
    {"molecule": "N-Ac-Sar-Gly-Val-D-Ile-Thr-Nva-Ile-Arg-ProNHethyl-1-(R)-cyclohexyl [Example 8]", "values": [
      {"measurement": "% Inhib. @ 10 nM", "setting": "[2]", "result": 88.2, "unit": "%"}
    ]},
    {"molecule": "N-Cyclohexylacetyl-Sar-Gly-Val-D-Ile-Tlu-Nva-Ile-Arg-ProNHCH2CH3 [Example 52]", "values": [
      {"measurement": "% Inhib. @ 20 nM", "setting": "[2]", "result": 46.5, "unit": "%"}
    ]}
  ]
}
